#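 Where inhibition never reached the appropriate level, the endpoint shown equals the highest concentration tested. Otherwise, values were interpolated linearly from a five-concentration, 48-hour dose response in 96-well plates. At the TGI there is no net growth.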
# Assays:
# Experiment in all cases: NCI tumour cell line growth inhibition, 48 h
# UACC-257 melanoma = tested on: UACC-257 melanoma
# SK-MEL-5 melanoma = tested on: SK-MEL-5 melanoma
# DU-145 prostate = tested on: DU-145 prostate
# SR leukemia = tested on: SR leukemia
# COLO 205 colon = tested on: COLO 205 colon
# A498 renal = tested on: A498 renal
# K-562 leukemia = tested on: K-562 leukemia
# NCI-H460 lung = tested on: NCI-H460 lung
# PC-3 prostate = tested on: PC-3 prostate
# HT29 colon = tested on: HT29 colon
# RPMI-8226 leukemia = tested on: RPMI-8226 leukemia
# HCT-15 colon = tested on: HCT-15 colon
# TK-10 renal = tested on: TK-10 renal
# NCI-H226 lung = tested on: NCI-H226 lung
# ACHN renal = tested on: ACHN renal
# M14 melanoma = tested on: M14 melanoma
# NCI-H23 lung = tested on: NCI-H23 lung
# KM12 colon = tested on: KM12 colon
# HS 578T breast = tested on: HS 578T breast
# MCF7 breast = tested on: MCF7 breast
# SNB-19 CNS = tested on: SNB-19 CNS
# EKVX NSCLC = tested on: EKVX NSCLC
# SF-539 CNS = tested on: SF-539 CNS
# 786-0 renal = tested on: 786-0 renal
# SN12C renal = tested on: SN12C renal
# HOP-62 NSCLC = tested on: HOP-62 NSCLC
# UO-31 renal = tested on: UO-31 renal
# OVCAR-8 ovarian = tested on: OVCAR-8 ovarian
# SF-268 CNS = tested on: SF-268 CNS
# OVCAR-5 ovarian = tested on: OVCAR-5 ovarian
# MDA-N = tested on: MDA-N
# U251 CNS = tested on: U251 CNS
# HCC-2998 colon = tested on: HCC-2998 colon
# LOX IMVI melanoma = tested on: LOX IMVI melanoma
# SW-620 colon = tested on: SW-620 colon
# NCI/ADR-RES ovarian = tested on: NCI/ADR-RES ovarian
# HOP-92 NSCLC = tested on: HOP-92 NSCLC
# HL-60(TB) leukemia = tested on: HL-60(TB) leukemia
# A549 NSCLC = tested on: A549 NSCLC
# IGROV1 ovarian = tested on: IGROV1 ovarian
# MDA-MB-435 = tested on: MDA-MB-435
# MALME-3M melanoma = tested on: MALME-3M melanoma
# MDA-MB-231 breast = tested on: MDA-MB-231 breast
# SF-295 CNS = tested on: SF-295 CNS
# SK-MEL-28 melanoma = tested on: SK-MEL-28 melanoma
# BT-549 breast = tested on: BT-549 breast
# OVCAR-3 ovarian = tested on: OVCAR-3 ovarian
# OVCAR-4 ovarian = tested on: OVCAR-4 ovarian
# HCT-116 colon = tested on: HCT-116 colon
# UACC-62 melanoma = tested on: UACC-62 melanoma
# MOLT-4 leukemia = tested on: MOLT-4 leukemia
# CCRF-CEM leukemia = tested on: CCRF-CEM leukemia
# SK-OV-3 ovarian = tested on: SK-OV-3 ovarian
# SK-MEL-2 melanoma = tested on: SK-MEL-2 melanoma
# CAKI-1 renal = tested on: CAKI-1 renal
# NCI-H522 lung = tested on: NCI-H522 lung
smiles,measurement,setting,value
O=c1cc(NNc2ccc3ccccc3c2)[nH]c(=S)[nH]1,TGI,UACC-257 melanoma,> 100 µM
same,TGI,SK-MEL-5 melanoma,> 100 µM
same,TGI,DU-145 prostate,> 100 µM
same,TGI,SR leukemia,> 100 µM
same,TGI,COLO 205 colon,46 µM
same,TGI,A498 renal,> 100 µM
same,TGI,K-562 leukemia,41.1 µM
same,TGI,NCI-H460 lung,> 100 µM
same,TGI,PC-3 prostate,46.4 µM
same,TGI,HT29 colon,30 µM
same,TGI,RPMI-8226 leukemia,> 100 µM
same,TGI,HCT-15 colon,34.1 µM
same,TGI,TK-10 renal,> 100 µM
same,TGI,NCI-H226 lung,> 100 µM
same,TGI,ACHN renal,> 100 µM
same,TGI,M14 melanoma,> 100 µM
same,TGI,NCI-H23 lung,> 100 µM
same,TGI,KM12 colon,38.3 µM
same,TGI,HS 578T breast,> 100 µM
same,TGI,MCF7 breast,66.6 µM
same,TGI,SNB-19 CNS,> 100 µM
same,TGI,EKVX NSCLC,> 100 µM
same,TGI,SF-539 CNS,82.1 µM
same,TGI,786-0 renal,39.6 µM
same,TGI,SN12C renal,> 100 µM
same,TGI,HOP-62 NSCLC,98.3 µM
same,TGI,UO-31 renal,> 100 µM
same,TGI,OVCAR-8 ovarian,> 100 µM
same,TGI,SF-268 CNS,80 µM
same,TGI,OVCAR-5 ovarian,> 100 µM
same,TGI,MDA-N,> 100 µM
same,TGI,U251 CNS,> 100 µM
same,TGI,HCC-2998 colon,> 100 µM
same,TGI,LOX IMVI melanoma,26 µM
same,TGI,SW-620 colon,36.8 µM
same,TGI,NCI/ADR-RES ovarian,> 100 µM
same,TGI,HOP-92 NSCLC,62.1 µM
same,TGI,HL-60(TB) leukemia,69.5 µM
same,TGI,A549 NSCLC,> 100 µM
same,TGI,IGROV1 ovarian,> 100 µM
same,TGI,MDA-MB-435,> 100 µM
same,TGI,MALME-3M melanoma,> 100 µM
same,TGI,MDA-MB-231 breast,> 100 µM
same,TGI,SF-295 CNS,> 100 µM
same,TGI,SK-MEL-28 melanoma,> 100 µM
same,TGI,BT-549 breast,> 100 µM
same,TGI,OVCAR-3 ovarian,34.1 µM
same,TGI,OVCAR-4 ovarian,> 100 µM
same,TGI,HCT-116 colon,> 100 µM
COc1cccc(NC(=O)CC(=O)Nc2cccc(OC)c2)c1,TGI,UACC-257 melanoma,> 100 µM
same,TGI,SK-MEL-5 melanoma,> 100 µM
same,TGI,DU-145 prostate,> 100 µM
same,TGI,SR leukemia,> 100 µM
same,TGI,COLO 205 colon,> 100 µM
same,TGI,A498 renal,> 100 µM
same,TGI,K-562 leukemia,> 100 µM
same,TGI,NCI-H460 lung,> 100 µM
same,TGI,UACC-62 melanoma,> 100 µM
same,TGI,PC-3 prostate,> 100 µM
same,TGI,MOLT-4 leukemia,> 100 µM
same,TGI,HT29 colon,> 100 µM
same,TGI,RPMI-8226 leukemia,> 100 µM
same,TGI,CCRF-CEM leukemia,> 100 µM
same,TGI,HCT-15 colon,> 100 µM
same,TGI,TK-10 renal,> 100 µM
same,TGI,NCI-H226 lung,> 100 µM
same,TGI,ACHN renal,> 100 µM
same,TGI,M14 melanoma,> 100 µM
same,TGI,NCI-H23 lung,> 100 µM
same,TGI,KM12 colon,> 100 µM
same,TGI,HS 578T breast,> 100 µM
same,TGI,MCF7 breast,> 100 µM
same,TGI,SNB-19 CNS,> 100 µM
same,TGI,EKVX NSCLC,> 100 µM
same,TGI,SF-539 CNS,> 100 µM
same,TGI,786-0 renal,> 100 µM
same,TGI,SN12C renal,> 100 µM
same,TGI,HOP-62 NSCLC,> 100 µM
same,TGI,UO-31 renal,> 100 µM
same,TGI,OVCAR-8 ovarian,> 100 µM
same,TGI,SF-268 CNS,> 100 µM
same,TGI,MDA-N,> 100 µM
same,TGI,U251 CNS,> 100 µM
same,TGI,HCC-2998 colon,> 100 µM
same,TGI,LOX IMVI melanoma,> 100 µM
same,TGI,SW-620 colon,> 100 µM
same,TGI,NCI/ADR-RES ovarian,> 100 µM
same,TGI,HOP-92 NSCLC,> 100 µM
same,TGI,SK-OV-3 ovarian,> 100 µM
same,TGI,SK-MEL-2 melanoma,> 100 µM
same,TGI,CAKI-1 renal,> 100 µM
same,TGI,HL-60(TB) leukemia,> 100 µM
same,TGI,A549 NSCLC,> 100 µM
same,TGI,IGROV1 ovarian,> 100 µM
same,TGI,MDA-MB-435,> 100 µM
same,TGI,MALME-3M melanoma,> 100 µM
same,TGI,MDA-MB-231 breast,> 100 µM
same,TGI,SF-295 CNS,> 100 µM
same,TGI,SK-MEL-28 melanoma,> 100 µM
same,TGI,NCI-H522 lung,> 100 µM
same,TGI,BT-549 breast,> 100 µM
same,TGI,OVCAR-3 ovarian,> 100 µM
same,TGI,OVCAR-4 ovarian,> 100 µM
same,TGI,HCT-116 colon,> 100 µM
